Literature values as cited in US20190083428A1, “SALT BALANCED VAGINAL PRODUCT AND METHOD” (Good Clean Love, Inc., priority 2014, published 2019).

How the values were obtained:
HSV-2 = details: after a single exposure
[1] = hyperosmolal concentrations

Row | Compound | susceptibility to HSV-2 (HSV-2) | toxicity [1] | toxicity to lactobacilli (lactobacilli)
1 | CC(O)CO (stereo not shown) [propylene glycol] | markedly increased susceptibility | obvious toxicity | 
2 | OCC(O)CO [glycerol] |  | obvious toxicity | 
3 | nonoxynol-9 [Example N9] |  |  | toxic
